Assays:
TGR5 [1] = biological target: T1, TGR5 (Homo sapiens, UniProt Q8TDU6); assay: cAMP production in TGR5 expressing CHO cells (CHO-TGR5); assay type: cell-based; parameters: expressed in transfected cells; settings: CHO-TGR5, 20 minutes; potency in order TLCA, LCA, DCA, CDCA, CA
T1 sequence (Q8TDU6 1-330): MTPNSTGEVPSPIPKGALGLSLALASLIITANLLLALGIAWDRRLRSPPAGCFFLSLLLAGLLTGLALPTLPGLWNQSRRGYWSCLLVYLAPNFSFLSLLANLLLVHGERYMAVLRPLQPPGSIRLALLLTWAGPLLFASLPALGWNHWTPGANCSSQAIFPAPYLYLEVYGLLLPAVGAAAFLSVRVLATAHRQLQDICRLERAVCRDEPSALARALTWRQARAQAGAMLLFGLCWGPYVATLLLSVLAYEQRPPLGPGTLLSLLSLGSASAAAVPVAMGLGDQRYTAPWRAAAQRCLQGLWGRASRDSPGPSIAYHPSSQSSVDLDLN
Method: The cells were washed twice with assay buffer (DMEM supplemented with 0.1% bovine serum albumin and 0.2 mM 3-isobutyl-1-methylxanthine (IBMX)) and preincubated for 30 minutes. After washing the cells twice, a sample diluted with assay buffer was added to the cells, and the cells were incubated for 20 minutes. The culture supernatant was discarded, and by cAMP Screen System (ABI), cAMP production level was measured. […] The cAMP production level was represented by % for positive control as 100%.

mouse TGR5 = biological target: T2, mouse TGR5 (Mus musculus, UniProt Q80SS6); assay: CRE-luciferase reporter assay in CHO-mock cells co-expressing Gi and mouse TGR5; assay type: cell-based; settings: 10 μM bile acid, mouse TGR5, versus group with no bile acid (Base)
T2 construct: expressed in transfected cells; host or cells: CHO-mock cells, transient, with Gi plasmid and reporter plasmid
T2 sequence (Q80SS6 1-329): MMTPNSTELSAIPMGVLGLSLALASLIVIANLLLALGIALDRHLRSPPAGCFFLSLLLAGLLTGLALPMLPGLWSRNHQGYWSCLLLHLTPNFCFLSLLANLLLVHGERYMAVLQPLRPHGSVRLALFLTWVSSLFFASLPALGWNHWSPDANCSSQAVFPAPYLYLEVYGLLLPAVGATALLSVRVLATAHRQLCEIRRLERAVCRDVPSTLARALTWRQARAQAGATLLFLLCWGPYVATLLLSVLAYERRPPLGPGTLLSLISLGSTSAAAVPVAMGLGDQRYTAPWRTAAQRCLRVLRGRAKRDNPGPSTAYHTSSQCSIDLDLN
Method: (§1) Alternatively, an assay under condition wherein forskolin was added to the assay buffer at the final concentration of 2 μM, was performed in the same way. […] After completion of incubation, the assay buffer was removed from each well. Then 50 μl of luminescent substrate for PicaGene LT2.0 (Toyo Ink) was added to each well.
(§2) The mixing ratio of these three plasmids is, where the total volume is 11 μl, appropriate for 1 to 6, preferably 1 to 3 of Gi.
(§3) For a positive control of reporter gene expression, forskolin (FSSK, 2 μM) was used.

TGR5 [2] = biological target: T1, TGR5; assay: CRE-luciferase reporter assay in CHO-mock cells co-expressing Gi and human TGR5; assay type: cell-based; parameters: expressed in transfected cells; host or cells: CHO-mock cells (CHO(dhfr-) transformed with pAKKO-111H), transient, with Gi plasmid and reporter plasmid; settings: 10 μM bile acid, human TGR5, versus group with no bile acid (Base)
Method: as §1, §2, §3

bovine TGR5 = biological target: T3, bovine TGR5 (Bos taurus, UniProt Q862A9); assay: CRE-luciferase reporter assay in CHO-mock cells co-expressing Gi and bovine TGR5; assay type: cell-based; settings: 10 μM bile acid, bovine TGR5, versus group with no bile acid (Base)
T3 construct: expressed in transfected cells; host or cells: CHO-mock cells, transient, with Gi plasmid and reporter plasmid
T3 sequence (Q862A9 1-329): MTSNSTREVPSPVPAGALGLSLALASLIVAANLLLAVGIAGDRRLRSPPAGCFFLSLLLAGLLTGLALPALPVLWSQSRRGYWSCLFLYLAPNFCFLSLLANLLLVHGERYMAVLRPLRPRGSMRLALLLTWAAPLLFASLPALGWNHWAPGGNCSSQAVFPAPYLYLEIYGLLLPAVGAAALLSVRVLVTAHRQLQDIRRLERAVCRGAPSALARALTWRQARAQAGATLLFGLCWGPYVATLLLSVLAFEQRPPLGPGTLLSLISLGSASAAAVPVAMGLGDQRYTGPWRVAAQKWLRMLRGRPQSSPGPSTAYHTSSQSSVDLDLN
Method: as §1, §2, §3

rabbit TGR5 = biological target: T4, rabbit TGR5 (Oryctolagus cuniculus, UniProt Q862A8); assay: CRE-luciferase reporter assay in CHO-mock cells co-expressing Gi and rabbit TGR5; assay type: cell-based; settings: 10 μM bile acid, rabbit TGR5, versus group with no bile acid (Base)
T4 construct: expressed in transfected cells; host or cells: CHO-mock cells, transient, with Gi plasmid and reporter plasmid
T4 sequence (Q862A8 1-330): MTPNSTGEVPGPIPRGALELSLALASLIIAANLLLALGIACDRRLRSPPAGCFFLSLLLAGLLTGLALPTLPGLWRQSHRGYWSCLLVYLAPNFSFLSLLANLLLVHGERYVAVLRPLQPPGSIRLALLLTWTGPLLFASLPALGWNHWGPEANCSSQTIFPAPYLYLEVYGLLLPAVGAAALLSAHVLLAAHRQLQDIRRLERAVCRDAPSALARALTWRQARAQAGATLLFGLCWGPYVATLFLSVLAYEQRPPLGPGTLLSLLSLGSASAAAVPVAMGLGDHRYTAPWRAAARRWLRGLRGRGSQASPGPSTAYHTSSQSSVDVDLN
Method: as §1, §2, §3

rat TGR5 = biological target: T5, rat TGR5 (Rattus norvegicus, UniProt Q80T02); assay: CRE-luciferase reporter assay in CHO-mock cells co-expressing Gi and rat TGR5; assay type: cell-based; settings: 10 μM bile acid, rat TGR5, versus group with no bile acid (Base)
T5 construct: expressed in transfected cells; host or cells: CHO-mock cells, transient, with Gi plasmid and reporter plasmid
T5 sequence (Q80T02 1-329): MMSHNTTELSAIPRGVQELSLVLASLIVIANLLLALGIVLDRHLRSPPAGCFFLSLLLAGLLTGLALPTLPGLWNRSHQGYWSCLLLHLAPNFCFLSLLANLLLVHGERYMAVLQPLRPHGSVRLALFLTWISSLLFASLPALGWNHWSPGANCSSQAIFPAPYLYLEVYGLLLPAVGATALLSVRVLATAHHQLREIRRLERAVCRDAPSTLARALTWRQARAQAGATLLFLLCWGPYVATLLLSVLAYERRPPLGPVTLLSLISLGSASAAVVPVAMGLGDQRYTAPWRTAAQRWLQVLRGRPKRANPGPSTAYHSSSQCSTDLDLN
Method: as §1, §2, §3

[3] = system: rabbit alveolus macrophage; assay: Phagocytotic activity of rabbit alveolus macrophage (yeast uptake, fuchsin staining); settings: 100 μM, 16 hours
Method: From rabbit (NZW, female, approximately 2.5 to 3.0 kg of weight), under anesthesia, serum and lung were collected. By washing with PBS (phosphate-buffered saline) transfused through trachea, suspension containing alveolus macrophage in the lung was recovered. After washing the obtained cells with further PBS, the cells were suspended in medium (DMEM supplemented with 2% FBS, 0.1 mM non-essential amino acids, 50 μg/ml streptomycin, 50 U/ml penicillin and 50 μg/ml gentamicin; any component from GibcoBRL), loaded on Ficoll-Paque Plus (Amersham Pharmacia), isolator for mononuclear cells, and treated with centrifugation to remove erythrocyte. […] Then the cells were further cultured for 16 hours. Fifty μl of serum obtained from the same rabbit, and 0.8×10^8/ml of yeast suspension sterilized by heating, were added to the culture. Subsequently, the cell were cultured under 5% CO2 for 40 minutes. After adding 60 μl of 0.1% fuchsin solution (Wako Pure Chemicals) to the culture, the cells were peeled and were centrifuged. The suspension was observed by microscope.

## C[C@H](CCC(=O)O)[C@H]1CC[C@H]2[C@@H]3[C@H](O)C[C@@H]4C[C@H](O)CC[C@]4(C)[C@H]3C[C@H](O)[C@]12C [CA, cholic acid]
TGR5 [1]
  cAMP production: increase of cAMP production, which is dependent on concentration

## C[C@H](CCC(=O)O)[C@H]1CC[C@H]2[C@@H]3[C@H](O)C[C@@H]4C[C@H](O)CC[C@]4(C)[C@H]3CC[C@]12C [CDCA, chenodeoxycholic acid]
TGR5 [1]
  cAMP production: increase of cAMP production, which is dependent on concentration
Mouse TGR5
  luciferase activity (reporter gene expression level): higher luciferase activity than that of a group with no bile acid
TGR5 [2]
  luciferase activity (reporter gene expression level): higher luciferase activity than that of a group with no bile acid
Bovine TGR5
  luciferase activity (reporter gene expression level): higher luciferase activity than that of a group with no bile acid
Rabbit TGR5
  luciferase activity (reporter gene expression level): higher luciferase activity than that of a group with no bile acid
Rat TGR5
  luciferase activity (reporter gene expression level): higher luciferase activity than that of a group with no bile acid

## C[C@H](CCC(=O)NCC(=O)O)[C@H]1CC[C@H]2[C@@H]3CC[C@@H]4C[C@H](O)CC[C@]4(C)[C@H]3CC[C@]12C [GLCA, glycolithocholic acid]
[3]
  phagocytotic activity of macrophage: significantly decreased
